# “Also recorded” adds a separate entry of the source.
# How the values were obtained:
# [1] = tested on: airways of OVA-sensitized mice; test: OVA-induced allergic airway inflammation in mice (alcian blue mucus staining, airway cross section, CD45 infiltration); type: in vivo, mouse; conditions: for OVA-induced mucus production: wt mice, tracheal instillation, niflumic acid 20 μM or niclosamide 5 μM
# Description: Intestinal sections were collected for histological analyses. Mouse airways were fixed by transcardial fixation and were embedded in paraffin or were used as cryosections. For paraffin sections, tissues were fixed in 4% paraformaldehyde (PFA), 0.2% picric acid and 3.4% sucrose in PBS, and were washed in methanol before embedding in paraffin. Sections were stained according to standard Periodic acid-Schiff (PAS) or Alcian Blue methods and assessed by light microscopy.
# Mouse models were performed according to the previous example. For investigating mucus, IL-8 release, and leukocytes, tissues were fixed using 4% paraformaldehyde (PFA), 0.2% picric acid and 3.4% sucrose in PBS and washed in methanol before embedding in paraffin. Mucus was analyzed using standard Periodic acid-Schiff (PAS) or alcian blue staining. MUC5AC was stained using anti-MUC5AC mouse antibody (1:200, Abcam, ab3649) and a secondary antibody conjugated with Alexa488 (Life Technologies, A-21206). Nuclei were stained with Hoe33342 (0.1 μg/ml PBS, Aplichem, Darmstadt, Germany). Quantikine ELISA kits (R&D systems) were used to measure secretion of the cytokine IL-8 by Calu3 cells.
# All methods were performed as described in the previous examples. Mice were treated with ovalbumin (OVA) to induce an allergic reaction which leads to airway inflammation. […] After allergization with OVA and development of airway inflammation, excessive mucus production and inflammatory infiltration with immune cells is observed. Activation of cholinergic receptors using the muscarinic agonist carbachol (CCH) results in constriction of the airways and secretion of mucus (FIG. 5A-C). 3-day treatment using niclosamide reduced the CCH-induced constriction of the airways (FIG. 1). Furthermore, mucus secretion and inflammatory infiltrates were reduced.
# OVA-induced allergic airway inflammation in mice caused pronounced airway goblet cell metaplasia. […] NFA is a well know inhibitor of Ca^2+ activated Cl^− channels and inhibits TMEM16A. The two main TMEM16 paralogs expressed in airway epithelial and smooth muscle cells, TMEM16A and TMEM16F, were expressed in HEK293 cells and the whole cell currents upon activation by the Ca^2+ ionophore ionomycin (Iono) were measured. […] Novel therapeutic strategies for the treatment of inflammatory airway diseases such as CF may therefore consider the use of inhibitors of TMEM16.
# The present inventors disclose that airway epithelial knockout of TMEM16A causes a defect in basal, i.e. ATP-mediated mucus secretion. […] Mucus synthesis under inflammatory (OVA) conditions and mucus release upon cholinergic stimulation, however, were not compromised (FIG. 16C). […] Because basal mucus production still occurs in the absence of TMEM16A, other TMEM16 paralogs may also be in charge of mucus synthesis.
# TMEM16F = target: T1, TMEM16F (Homo sapiens, UniProt Q4KMQ2); test: Whole cell currents in HEK293 cells expressing TMEM16F (patch clamp); type: cell-based; conditions: HEK293; 1 nM ionomycin; NFA
# T1 construct: expressed in transfected cells; host or cells: HEK293 cells
# T1 sequence (Q4KMQ2 1-910): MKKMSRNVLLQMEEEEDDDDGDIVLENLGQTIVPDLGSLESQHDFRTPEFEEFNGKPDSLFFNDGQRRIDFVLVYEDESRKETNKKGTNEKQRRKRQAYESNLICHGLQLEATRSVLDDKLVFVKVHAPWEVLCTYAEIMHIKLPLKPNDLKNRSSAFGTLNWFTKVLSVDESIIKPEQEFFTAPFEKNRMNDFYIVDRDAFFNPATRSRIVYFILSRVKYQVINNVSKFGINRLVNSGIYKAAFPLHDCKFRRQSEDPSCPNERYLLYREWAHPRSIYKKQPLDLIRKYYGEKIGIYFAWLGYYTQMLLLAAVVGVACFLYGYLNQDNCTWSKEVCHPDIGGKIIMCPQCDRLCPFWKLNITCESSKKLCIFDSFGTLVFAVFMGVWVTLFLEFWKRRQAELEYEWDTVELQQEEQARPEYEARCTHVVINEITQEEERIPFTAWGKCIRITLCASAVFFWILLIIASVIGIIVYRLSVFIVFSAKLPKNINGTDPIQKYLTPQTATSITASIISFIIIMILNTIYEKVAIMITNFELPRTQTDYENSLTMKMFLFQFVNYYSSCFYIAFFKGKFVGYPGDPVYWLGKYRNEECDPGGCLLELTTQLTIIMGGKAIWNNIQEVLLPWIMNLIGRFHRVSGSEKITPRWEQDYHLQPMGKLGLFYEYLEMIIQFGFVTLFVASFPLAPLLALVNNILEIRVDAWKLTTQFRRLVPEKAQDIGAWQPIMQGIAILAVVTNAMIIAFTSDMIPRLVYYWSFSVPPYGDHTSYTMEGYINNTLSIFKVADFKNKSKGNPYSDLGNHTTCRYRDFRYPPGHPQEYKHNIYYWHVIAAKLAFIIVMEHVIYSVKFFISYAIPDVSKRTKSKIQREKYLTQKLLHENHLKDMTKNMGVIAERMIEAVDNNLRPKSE
# Description: (§1) FIG. 14: The TMEM16-inhibitor niflumic acid attenuates inflammatory airway disease. • A,B) OVA-sensitization induced pronounced goblet cell metaplasia as indicated by alcian blue positivity. Exposure to carbachol (CCH, 25 mg/ml, nebulizer) induced release of mucus and airway […]. Bars indicate […]. […] Mean±SEM; *significant inhibition by NFA (paired ttest). # significant difference when compared to OVA (unpaired t-test). (n) number of airways analysed or number of cells examined.
# (§2) FIG. 15: Inhibition of TMEM16A and TMEM16F by niclosamide. • A) TMEM16A whole cell currents in overexpressing HEK293 cells. […]
# (§3) OVA-induced allergic airway inflammation in mice caused pronounced airway goblet cell metaplasia. […] The two main TMEM16 paralogs expressed in airway epithelial and smooth muscle cells, TMEM16A and TMEM16F, were expressed in HEK293 cells and the whole cell currents upon activation by the Ca^2+ ionophore ionomycin (Iono) were measured. […]
# (§4) Similar to TMEM16A, also overexpressed TMEM16F was inhibited by niclosamide (FIG. 15D). […] TMEM16A was activated by ionomycin and TMEM16A currents were measured as iodide quenching.
# TMEM16A = target: T2, TMEM16A (Homo sapiens, UniProt Q5XXA6); test: Whole cell currents in HEK293 cells expressing TMEM16A (patch clamp); type: cell-based; design: expressed in transfected cells; host or cells: HEK293 cells; conditions: HEK293; 1 nM ionomycin; NFA
# T2 sequence (Q5XXA6 1-986): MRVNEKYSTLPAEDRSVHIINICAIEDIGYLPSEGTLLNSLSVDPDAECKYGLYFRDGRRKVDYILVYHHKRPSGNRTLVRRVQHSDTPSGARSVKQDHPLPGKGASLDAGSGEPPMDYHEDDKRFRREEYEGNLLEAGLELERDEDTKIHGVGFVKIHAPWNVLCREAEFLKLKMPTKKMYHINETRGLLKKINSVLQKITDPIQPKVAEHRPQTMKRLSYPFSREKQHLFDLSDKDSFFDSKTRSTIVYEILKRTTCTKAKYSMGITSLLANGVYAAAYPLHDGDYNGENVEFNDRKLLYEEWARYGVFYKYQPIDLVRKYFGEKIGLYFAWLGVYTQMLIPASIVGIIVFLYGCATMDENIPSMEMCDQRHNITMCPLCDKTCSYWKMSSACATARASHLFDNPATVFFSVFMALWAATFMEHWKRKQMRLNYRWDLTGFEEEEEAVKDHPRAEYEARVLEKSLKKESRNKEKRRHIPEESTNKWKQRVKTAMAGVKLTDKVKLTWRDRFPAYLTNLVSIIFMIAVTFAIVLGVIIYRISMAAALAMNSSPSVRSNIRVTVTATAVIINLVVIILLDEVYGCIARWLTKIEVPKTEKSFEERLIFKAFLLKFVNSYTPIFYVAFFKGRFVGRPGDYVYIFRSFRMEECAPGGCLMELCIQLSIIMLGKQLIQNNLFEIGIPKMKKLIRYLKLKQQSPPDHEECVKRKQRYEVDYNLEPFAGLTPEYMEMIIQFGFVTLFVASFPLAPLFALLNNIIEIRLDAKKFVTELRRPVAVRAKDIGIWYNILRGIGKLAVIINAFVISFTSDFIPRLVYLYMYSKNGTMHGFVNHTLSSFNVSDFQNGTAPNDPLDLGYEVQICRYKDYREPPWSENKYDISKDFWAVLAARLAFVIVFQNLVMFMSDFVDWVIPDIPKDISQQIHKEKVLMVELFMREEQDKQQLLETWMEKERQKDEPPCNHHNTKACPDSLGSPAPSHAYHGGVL
# Description: as §1, §2, §3, §4
# [2] = tested on: airway epithelial specific TMEM16A knockout mice; test: Airway mucus in airway epithelial specific TMEM16A knockout mice; type: in vivo, mouse; conditions: 1 mg/kg intraperitoneally for 5 days
# Description: In another set of experiments, airway epithelial specific TMEM16A knockout mice were treated with benzbromarone. Airway epithelial specific TMEM16A knockout mice accumulate mucus in club cells, likely due to a secretory defect (FIG. 20A). Benzbromarone […], intraperitoneally) was applied for 5 days to mice with an airway epithelial specific knockout of TMEM16A. […] Thus benzbromarone is beneficial in the treatment of CF by reducing airway mucus plugging and therefore improving lung function.
# endogenous TMEM16A = test: Iodide quenching of YFP in HT29 cells stimulated with ionomycin; type: cell-based
# Description: FIG. 15: Inhibition of TMEM16A and TMEM16F by niclosamide. • A) TMEM16A whole cell currents in overexpressing HEK293 cells. […] Rate of YFP quenching (arbitrary units (au/second), when applying 20 mM iodide to the extracellular bath solution. HT29 cells stably overexpressing YFP were stimulated with […] ionomycin. 100,000 cells were seeded/well. Mean±SEM; (number of experiments) #significant inhibition when compared to the absence of the inhibitor (p<0.05; unpaired t-test); *significant activation by UTP (paired t-test).
# Similar to TMEM16A, also overexpressed TMEM16F was inhibited by niclosamide (FIG. 15D). The effect of niclosamide was also examined on endogenous TMEM16A expressed in HT29 colonic carcinoma cells, which were stably transfected with iodide-sensitive yellow fluorescent protein (YFP). TMEM16A was activated by ionomycin and TMEM16A currents were measured as iodide quenching.
# [3] = tested on: TMEM16A-expressing HEK293 cells; test: FM4-64 fluorescence (exocytosis) in TMEM16A-expressing HEK293 cells; type: cell-based; conditions: 10 μM
# Description: FIG. 8: TMEM16A controls exocytosis. • A) Whole cell current/voltage relationships obtained in mock transfected and TMEM16A (T16A) expressing HEK293 cells. Stimulation with the Ca^2+ ionophore ionomycin (Iono; 1 μM) activated whole cell currents in TMEM16A-expressing cells (n=12). • B) Increase of FM4-64 fluorescence upon stimulation with ionomycin in mock-transfected and TMEM16A-expressing cells, and inhibition by CaCCinhAO1 (AO1; 10 μM) (n=30). • C) Effect of ATP, or • D) CCH (both 100 μM) on FM4-64 fluorescence in cells expressing P2Y2 or M3 receptors (n=30). Mean±SEM. *significant increase by Iono (paired t-test). #significant difference when compared to mock (unpaired t-test).
# [4] = OVA-sensitized mice, 20 mg/kg/day intratracheal for three days before CCH, 20 mg/kg/day
# [5] = OVA-sensitized mice, acute exposure to TMEM16A activator
smiles,measurement,setting,value
"O=C(O)c1cccnc1Nc1cccc(C(F)(F)F)c1 [NFA, niflumic acid]",CCH-induced airway contraction (airway cross sections),[1]; [4],completely blocked; also recorded: strongly attenuated
same,mucus production / airway mucus,[1]; [4],abolished; also recorded: strongly attenuated
same,OVA-induced mucus production,[1],strongly reduced
same,OVA-induced mucus production,[1]; listed as niflumic acid,inhibited mucus production
same,TMEM16F whole cell current activated by ionomycin,TMEM16F,potently suppressed
same,TMEM16A whole cell current activated by ionomycin,TMEM16A,potently suppressed
"CCc1oc2ccccc2c1C(=O)c1cc(Br)c(O)c(Br)c1 [Benzbromarone, (3,5-dibromo-4-hydroxyphenyl) (2-ethyl-1-benzofuran-3-yl)methanone]",mucus production,[2],largely reduced
"O=C(Nc1ncc([N+](=O)[O-])s1)c1ccccc1O [tizoxanide, 2-hydroxy-N-(5-nitro-1,3-thiazol-2-yl)benzamide]",potency compared with CaCCinhAO1 or dichlorophen,endogenous TMEM16A; HT29 YFP iodide quenching,more potent
same,inhibition of endogenous TMEM16A (iodide quenching of YFP),"endogenous TMEM16A; HT29 cells stably expressing YFP, ionomycin, 20 mM iodide",low nanomolar range
COCCN(C(=O)c1cc(OC)c(OC)c(OC)c1)c1nc(-c2ccccc2)cs1 [Eact],airway contraction,[1]; [5],airway contraction
same,mucus release,[1]; [5],induces massive mucus release
CC(C)(C)C1CCc2c(sc(NC(=O)c3ccco3)c2C(=O)O)C1 (stereo not drawn) [CaCCinhAO1],increase of FM4-64 fluorescence upon stimulation with ionomycin,[3],inhibition
